From patent US20120095215A1, “MEDICAL COMPOSITION FOR TREATMENT OR PROPHYLAXIS OF EYE DISEASES” (UBE INDUSTRIES, LTD., priority 2009, published 2012)
Structures can show the parent of a compound that is named as a salt.

What was measured:
[1] = system: HUVEC (human umbilical vein endothelial cell), αvβ3 expressing cell; test: αvβ3 expressing cell adhesion test (HUVEC on human vitronectin); type: cell-based; details: HUVEC binding to human vitronectin, 50% human serum-containing DMEM, 1 hour; read-out: αvβ3 developed cell adhesion inhibition IC50 value
Description: The method of Juliano, et al. (Exp. Cell Res., 225(1), 132 (1996)) was partially modified and carried out.
Human vitronectin (available from CHEMICON CORP.) was adjusted to 10 μg/mL with phosphate buffered saline (hereinafter abbreviated to as PBS). This was apportioned on a 96-well plate (MS9586F, available from SUMIRON Co., Ltd.) with 100 μL/well, subjected to coating at room temperature for 1 hour, then, the coating solution was removed and dried. Thereafter, blocking treatment was carried out by 1.0% BSA dissolved in Dulbecco's Modified Eagle's Medium (hereinafter abbreviated to as DMEM) for 1 hour, followed by washing with PBS, and the obtained material was used for the adhesion test as a coating plate. HUVEC (human umbilical vein endothelial cell) (available from Clonetics Corp.) cultured in an endocerial cell basal medium EBM2 (available from Clonetics Corp.) containing growth factor EGM2 (available from Clonetics Corp.) and 10% fatal bovin serum (hereinafter abbreviated to as FBS) was peeled by using trypsin-ethylenediamine tetraacetic acid, washed by using PBS and recovered, and then, suspended in 50% human serum-containing DMEM to prepare a cell solution of HUVEC. To human vitronectin coating plates was added a 50% human serum-containing DMEM solution containing the HUVEC cell solution and the test compound each 50 μL/plate to start the adhesion test. […]

αvβ3 protein = molecular target: T1, αvβ3 protein (Homo sapiens, UniProt P05106+P06756); test: αvβ3 protein binding test (fluorescence polarization, FITC-Echistatin); details: inhibition of binding of Echistatin and αvβ3 protein, 37° C., 30 minutes
T1 construct: purchased CHEMICON CORP; CC1019
Description: The method of Davis et al. (Proc. Natl. Acad. Sci., 96(16), 9269 (1999)) was partially modified and carried out.
By using Echistatin (available from SIGMA), Fluorescein Amine Labeling Kit for Peptides and Proteins (available from PanVera Corp., P2058) and Gel Filtration of Proteins Kit (P2101, PanVera Corp.), fluorescein isothiocyanate (hereinafter abbreviated to as FITC)-Echistatin was prepared. Then, with 137 μL of Tris-buffer (10 mM Tris base, 1 mM CaCl2, 1 mM MgCl2, 1 mM MnCl2, pH 7.4) were mixed 1 μL of 200 nM FITC-Echistatin (final concentration: 1 nM) and 2 μL of […] bovine serum albumin (hereinafter abbreviated to as BSA; available from SIGMA) (final concentration: 1 mg/mL). To the mixture was added 10 μL of the test compound, then, 50 μL of 4 nM αvβ3 (CC1019, available from CHEMICON CORP.) (final concentration: 1 nM) was added to the mixture and the resulting mixture was incubated at 37° C. for 30 minutes. By measuring fluorescence polarization degrees with BEACON2000 (available from PanVera Corp.), binding of Echistatin and αvβ3 protein was evaluated. The concentration (IC50 value) of the test compound necessary for inhibiting 50% of binding of Echistatin and αvβ3 protein was calculated by using EXSAS (available from Arm Systecs Co. Ltd.).

αvβ5 protein = molecular target: T2, αvβ5 protein (Homo sapiens, UniProt P06756+P18084); test: αvβ5 protein binding test (Biotin-Echistatin plate assay); details: inhibition of binding between Echistatin and αvβ5 protein
T2 construct: purchased CHEMICON Corp. CC1023
Description: The method of C. P. Carron et al. (J. Endocrinology, 165, 587 (2000)) was partially modified and carried out.
By using Echistatin (available from Bachem) and EZ-Link NHS-Biotin Reagent (available from Pierce Biotechnology Inc.), Biotin-Echistatin was prepared. Then, αvβ5 (CC1023, available from CHEMICON Corp.) was mixed with a Tris buffer solution (20 mM tris(hydroxymethyl)aminomethane, 150 mM NaCl, 1 mM CaCl2, 1 mM MgCl2, 1 mM MnCl2, pH 7.5), the mixture was added to Nunc immunoplate Maxisoap (available from Nalge Nunc Int. Co.), and incubated at room temperature overnight. The solution was removed, a Block Ace (available from Dai Nippon Sumitomo Pharma Co., Ltd.) solution was added to the residue and the mixture was incubated at room temperature for 2 hours, then, the solution was again removed and the residue was washed with 0.05% Tween-PBS. Next, a Tris buffer solution containing 10 mg/mL of bovine serum albumin (hereinafter abbreviated to as BSA; available from SIGMA) and the test compound was added to the mixture, and the resulting mixture was incubated at room temperature for 30 minutes. […] An absorbance at 495 nm was measured by Microplate reader (Spectra Fluor, available from TECAN Group, Ltd.) to evaluate binding of Echistatin and αvβ5 protein. […]

T1 sequence (P06756 31-889 limits assumed): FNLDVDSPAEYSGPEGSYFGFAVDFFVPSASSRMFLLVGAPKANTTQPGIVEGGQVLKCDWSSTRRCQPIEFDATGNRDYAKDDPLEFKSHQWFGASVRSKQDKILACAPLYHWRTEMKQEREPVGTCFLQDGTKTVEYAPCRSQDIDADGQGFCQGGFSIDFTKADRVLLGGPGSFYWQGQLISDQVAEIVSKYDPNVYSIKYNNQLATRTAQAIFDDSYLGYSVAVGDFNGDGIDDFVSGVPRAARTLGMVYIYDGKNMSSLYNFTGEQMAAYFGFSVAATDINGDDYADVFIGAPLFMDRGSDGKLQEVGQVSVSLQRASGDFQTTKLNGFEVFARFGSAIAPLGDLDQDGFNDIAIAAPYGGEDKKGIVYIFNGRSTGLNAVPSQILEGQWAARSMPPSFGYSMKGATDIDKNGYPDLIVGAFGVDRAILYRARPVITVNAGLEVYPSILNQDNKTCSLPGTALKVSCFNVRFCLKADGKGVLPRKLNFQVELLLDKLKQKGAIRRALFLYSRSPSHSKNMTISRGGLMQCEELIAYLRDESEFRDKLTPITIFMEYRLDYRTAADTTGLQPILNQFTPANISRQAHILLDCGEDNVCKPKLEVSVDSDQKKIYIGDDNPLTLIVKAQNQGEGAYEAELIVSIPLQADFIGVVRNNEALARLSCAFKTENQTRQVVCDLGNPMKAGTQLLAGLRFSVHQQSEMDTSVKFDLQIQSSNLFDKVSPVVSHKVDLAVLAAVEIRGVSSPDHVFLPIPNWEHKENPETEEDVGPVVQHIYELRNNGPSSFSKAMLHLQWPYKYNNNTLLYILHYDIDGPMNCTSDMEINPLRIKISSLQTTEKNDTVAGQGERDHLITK
T1 sequence (P06756 891-1048 partner limits assumed): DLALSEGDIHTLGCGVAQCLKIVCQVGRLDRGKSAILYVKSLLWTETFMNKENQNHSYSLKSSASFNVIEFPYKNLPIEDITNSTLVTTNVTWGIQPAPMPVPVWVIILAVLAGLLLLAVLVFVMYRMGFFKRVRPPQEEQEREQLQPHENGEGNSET
T1 sequence (P05106 27-788): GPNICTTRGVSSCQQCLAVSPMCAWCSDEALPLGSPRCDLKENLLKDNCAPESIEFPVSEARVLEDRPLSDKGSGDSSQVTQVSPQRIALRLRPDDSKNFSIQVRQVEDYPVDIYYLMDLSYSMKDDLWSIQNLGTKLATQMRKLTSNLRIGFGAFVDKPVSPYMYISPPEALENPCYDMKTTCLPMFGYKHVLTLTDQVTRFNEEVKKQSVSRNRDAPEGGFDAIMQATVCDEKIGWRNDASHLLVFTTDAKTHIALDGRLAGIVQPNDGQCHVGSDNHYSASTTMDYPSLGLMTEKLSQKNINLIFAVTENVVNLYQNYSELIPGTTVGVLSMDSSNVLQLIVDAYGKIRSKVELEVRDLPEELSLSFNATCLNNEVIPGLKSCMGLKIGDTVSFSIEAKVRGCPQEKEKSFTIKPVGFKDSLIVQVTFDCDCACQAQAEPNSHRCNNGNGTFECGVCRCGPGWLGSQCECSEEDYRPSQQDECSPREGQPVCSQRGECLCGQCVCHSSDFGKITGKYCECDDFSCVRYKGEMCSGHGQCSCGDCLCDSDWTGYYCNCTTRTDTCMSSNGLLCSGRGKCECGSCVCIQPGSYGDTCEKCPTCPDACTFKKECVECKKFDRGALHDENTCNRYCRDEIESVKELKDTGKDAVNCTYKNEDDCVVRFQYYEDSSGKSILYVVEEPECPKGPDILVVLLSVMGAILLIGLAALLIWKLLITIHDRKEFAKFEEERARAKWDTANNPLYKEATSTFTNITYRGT
T2 sequence (P06756 31-889 limits assumed): as the sequence (P06756 31-889 limits assumed) above
T2 sequence (P06756 891-1048 partner limits assumed): as the sequence (P06756 891-1048 partner limits assumed) above
T2 sequence (P18084 24-799): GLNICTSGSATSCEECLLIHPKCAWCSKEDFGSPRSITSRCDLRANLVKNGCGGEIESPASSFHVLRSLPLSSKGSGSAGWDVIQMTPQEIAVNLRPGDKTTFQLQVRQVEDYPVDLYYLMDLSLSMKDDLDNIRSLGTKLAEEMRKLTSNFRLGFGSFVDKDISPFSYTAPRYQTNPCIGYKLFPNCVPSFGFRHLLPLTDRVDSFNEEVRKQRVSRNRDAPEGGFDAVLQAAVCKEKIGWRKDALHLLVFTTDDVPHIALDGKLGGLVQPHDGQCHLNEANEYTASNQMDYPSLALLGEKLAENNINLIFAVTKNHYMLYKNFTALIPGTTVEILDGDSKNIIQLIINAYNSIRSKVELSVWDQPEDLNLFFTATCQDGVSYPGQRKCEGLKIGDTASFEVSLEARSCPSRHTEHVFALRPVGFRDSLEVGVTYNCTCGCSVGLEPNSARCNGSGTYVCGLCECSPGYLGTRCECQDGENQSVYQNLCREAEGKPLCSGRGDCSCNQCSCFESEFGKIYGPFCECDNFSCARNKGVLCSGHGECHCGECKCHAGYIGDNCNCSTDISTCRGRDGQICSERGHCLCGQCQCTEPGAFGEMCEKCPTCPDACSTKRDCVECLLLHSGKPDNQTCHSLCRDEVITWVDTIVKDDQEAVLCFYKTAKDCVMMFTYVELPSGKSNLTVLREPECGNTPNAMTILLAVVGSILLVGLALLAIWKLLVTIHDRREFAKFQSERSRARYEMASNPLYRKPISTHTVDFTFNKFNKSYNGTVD

SMILES	IC50 (αvβ3 protein) [nM]	IC50 (αvβ5 protein) [nM]	IC50 [1] [nM]
CNc1cccc(CCOc2ccc3c(c2)CN(CC(F)(F)F)C(=O)C(CC(=O)O)C3)n1 (racemic) [Compund A, 8-[2-[6-(methylamino)pyridin-2-yl]-1-ethoxy]-3-oxo-2-(2,2,2-trifluoroethyl)-2,3,4,5-tetrahydro-1H-2-benzazepin-4-acetic acid, reference compound]	7.1		161
O=C(O)C[C@@H]1Cc2ccc(OCCCNc3ccccn3)cc2CN(CC(F)(F)F)C1=O [Compund B, (4S)-3-oxo-8-[3-(pyridin-2-ylamino)-1-propyloxy]-2-(2,2,2-trifluoroethyl)-2,3,4,5-tetrahydro-1H-2-benzazepin-4-acetic acid, reference compound]	2.6	1.3	
O=C(O)CC1Cc2ccc(OCCc3cn4c(n3)NCCN4)cc2CN(CC(F)(F)F)C1=O (stereo not drawn) [Example 3, 3-Oxo-8-[2-(1,2,3,4-tetrahydroimidazo[1,2-b][1,2,4]triazin-6-yl)ethoxy]-2-(2,2,2-trifluoroethyl)-2,3,4,5-tetrahydro-1H-2-benzazepin-4-acetate trifluoroacetate]	1.3		

Stronger by IC50 (αvβ3 protein), values ahead:

IC50 (αvβ3 protein) [nM]	IC50 (αvβ5 protein) [nM]	SMILES	IC50 [1] [nM]
1.2		O=C(O)CC1Cc2ccc(OCCc3cn4c(n3)NCCC4)cc2CN(CC(F)(F)F)C1=O (stereo not drawn) [Example 2, 3-oxo-8-[2-(5,6,7,8-tetrahydroimidazo[1,2-a]pyrimidin-2-yl)ethoxy]-2-(2,2,2-trifluoroethyl)-2,3,4,5-tetrahydro-1H-2-benzazepin-4-acetate trifluoroacetate]	61
0.6	0.2	O=C(O)C[C@@H]1Cc2ccc(OCCc3cn4c(n3)NCCC4)cc2CN(CC(F)(F)F)C1=O [Example 4, (4S)-3-oxo-8-[2-(5,6,7,8-tetrahydroimidazo[1,2-a]pyrimidin-2-yl)ethoxy]-2-(2,2,2-trifluoroethyl)-2,3,4,5-tetrahydro-1H-2-benzazepin-4-acetic acid]	
